Values after ≈ are worked out from the molar mass of the structure shown.

7 compounds from patent US4060611A, “3-Carbamylbenzyl-7-(phenylglycyl)amino cephalosporin derivatives” (Beecham Group Limited, priority 1975, dated 1977) can be followed below.

What all share (type): cell-based
One experiment concerns Salm. typhi. Description: MIC, growth inhibition on nutrient agar. To be noted: Salmonella enterica, read-out: minimum inhibitory concentration (MIC).
The test system of the next experiment is E. coli JT1. Briefly: MIC, growth inhibition on nutrient agar. To be noted: Escherichia coli, nutrient agar (medium not given for Examples 6, 7), read-out: minimum inhibitory concentration (MIC).
In another experiment the test system is Staph. aureus Oxford. Briefly: MIC, growth inhibition on nutrient agar. To be noted: Staphylococcus aureus, nutrient agar (medium not given for Examples 6, 7), read-out: minimum inhibitory concentration (MIC).
In another experiment the test system is Enterobacter cloacae N1. Briefly: MIC, growth inhibition on nutrient agar. The following applies: nutrient agar (medium not stated for Example 6), read-out: minimum inhibitory concentration (MIC).
For another experiment, the system named is P. mirabilis C977. Description: MIC, growth inhibition on nutrient agar. To be noted: Proteus mirabilis, nutrient agar (medium not given for Examples 6, 7), read-out: minimum inhibitory concentration (MIC).
The test system of another experiment is P. rettgeri. Briefly: MIC, growth inhibition on nutrient agar. The following applies: Providencia rettgeri, nutrient agar (medium not given for Examples 6, 7), read-out: minimum inhibitory concentration (MIC).
In a further experiment the test system is β-haemolytic strep. CN10. Briefly: MIC, growth inhibition on nutrient agar. The following applies: nutrient agar (medium not given for Examples 6, 7), read-out: minimum inhibitory concentration (MIC).
The next experiment concerns Klebsiella aerogenes A. Briefly: MIC, growth inhibition on nutrient agar. The following applies: nutrient agar (medium not given for Examples 6, 7), read-out: minimum inhibitory concentration (MIC).
The next experiment concerns Shig. sonnei. Description: MIC, growth inhibition on nutrient agar. The following applies: Shigella sonnei, read-out: minimum inhibitory concentration (MIC).
Another experiment concerns B. subtilis. Description: MIC, growth inhibition on nutrient agar. To be noted: Bacillus subtilis, nutrient agar (medium not given for Examples 6, 7), read-out: minimum inhibitory concentration (MIC).
The subject of a further experiment is Staph. aureus Russell. Description: MIC, growth inhibition on nutrient agar. The following applies: Staphylococcus aureus, nutrient agar (medium not given for Examples 6, 7), read-out: minimum inhibitory concentration (MIC).
Another experiment has as its system P. mirabilis 889. Description: MIC, growth inhibition on nutrient agar. To be noted: Proteus mirabilis, read-out: minimum inhibitory concentration (MIC).
For another experiment, the system named is P. mirabilis 899. Briefly: MIC, growth inhibition on nutrient agar. To be noted: Proteus mirabilis, read-out: minimum inhibitory concentration (MIC).
Another experiment relates to P. morganii. Briefly: MIC, growth inhibition. The following applies: Morganella morganii, medium not stated, read-out: minimum inhibitory concentration (MIC).

On to `NC(=O)c1ccc(CC2=C(C(=O)O)N3C(=O)[C@@H](NC(=O)C(C(=O)Oc4ccccc4)c4ccccc4)[C@H]3SC2)cc1` (mixture of isomers) [Example 3, 3-(p-Carbamoylbenzyl)-7β-(DL-α-phenoxycarbonylphenylacetamido)ceph-3-em-4-carboxylic acid], for which the MIC in the experiment with Salm. typhi was determined as 10 µg/mL; in the experiment with E. coli JT1, 5 µg/mL; in the experiment with Staph. aureus Oxford, 1 µg/mL; in the experiment on Enterobacter cloacae N1, 10 µg/mL; in the experiment with P. mirabilis C977, 5 µg/mL; in the experiment on P. rettgeri, 5 µg/mL. The MIC came to 1 µg/mL in the experiment on β-haemolytic strep. CN10; 10 µg/mL with Klebsiella aerogenes A; 5 µg/mL with Shig. sonnei; 10 µg/mL in the experiment with B. subtilis; 10 µg/mL with Staph. aureus Russell.
Regarding `NC(=O)c1ccc(CC2=C(C(=O)O)N3C(=O)[C@@H](NC(=O)C(C(=O)Oc4ccccc4)c4ccsc4)[C@H]3SC2)cc1` (mixture of isomers) [Example 6, 3-(p-Carbamoylbenzyl)-7β-(DL-α-phenoxycarbonyl-3^1-thienylacetamido)ceph-3-em-4-carboxylic acid], the MIC was found to be 5 µg/mL in the experiment with E. coli JT1; 12.5 µg/mL with Staph. aureus Oxford; 12.5 µg/mL in the experiment with Enterobacter cloacae N1; 12.5 µg/mL in the experiment with P. mirabilis C977; 5 µg/mL with P. rettgeri; 25 µg/mL with β-haemolytic strep. CN10. Besides, the MIC worked out at 2.5 µg/mL in the experiment on Klebsiella aerogenes A, 25 µg/mL in the experiment with B. subtilis and 25 µg/mL in the experiment with Staph. aureus Russell.
Take `NC(=O)c1ccc(CC2=C(C(=O)O)N3C(=O)[C@@H](NC(=O)[C@H](N)c4ccccc4)[C@H]3SC2)cc1` [Example 1, 3-(p-Carbamoylbenzyl)-7β-(D-α-phenylglycyl)amino-ceph-3-em-4-carboxylic acid]: the MIC in the experiment on Salm. typhi is 2.5 µg/mL (≈ 5.36 µM); in the experiment with E. coli JT1, 2.5 µg/mL (≈ 5.36 µM); in the experiment on P. mirabilis 889, 2.5 µg/mL (≈ 5.36 µM); in the experiment with Staph. aureus Oxford, 0.1 µg/mL (≈ 0.214 µM); in the experiment with β-haemolytic strep. CN10 it was 0.01 µg/mL (≈ 0.0214 µM); with Klebsiella aerogenes A, 1 µg/mL (≈ 2.14 µM). Besides, the MIC in the experiment on Shig. sonnei was 2.5 µg/mL (≈ 5.36 µM); in the experiment on B. subtilis it was 0.1 µg/mL (≈ 0.214 µM); in the experiment on Staph. aureus Russell it was 2.5 µg/mL (≈ 5.36 µM).
Turning to `NC(=O)c1ccc(CC2=C(C(=O)O)N3C(=O)[C@@H](NC(=O)[C@H](N)c4ccc(O)cc4)[C@H]3SC2)cc1` [Example 2, 3-(p-Carbamoylbenzyl)-7β-(D-α-p-hydroxyphenylglycyl)amino-ceph-3-em-4-carboxylic acid], the MIC in the experiment on Salm. typhi was 0.5 µg/mL (≈ 1.04 µM); in the experiment on E. coli JT1, 2.5 µg/mL (≈ 5.18 µM); in the experiment on Staph. aureus Oxford it was 0.1 µg/mL (≈ 0.207 µM); in the experiment with P. mirabilis C977, 2.5 µg/mL (≈ 5.18 µM); in the experiment on P. mirabilis 899 it was 5 µg/mL (≈ 10.4 µM); in the experiment with β-haemolytic strep. CN10, 0.02 µg/mL (≈ 0.0414 µM). Further, the MIC in the experiment on Klebsiella aerogenes A was determined as 1 µg/mL (≈ 2.07 µM); with Shig. sonnei, 2.5 µg/mL (≈ 5.18 µM); in the experiment with B. subtilis it was 0.25 µg/mL (≈ 0.518 µM); with Staph. aureus Russell, 1 µg/mL (≈ 2.07 µM).
As to `NC(=O)c1cccc(CC2=C(C(=O)O)N3C(=O)[C@@H](NC(=O)[C@H](N)c4ccccc4)[C@H]3SC2)c1` [Example 4, 3-(m-Carbamoylbenzyl)-7β-(D-α-phenylglycyl)amino-ceph-3-em-4-carboxylic acid], the MIC was 10 µg/mL (≈ 21.4 µM) in the experiment on Salm. typhi; 10 µg/mL (≈ 21.4 µM) with P. mirabilis 889; 0.1 µg/mL (≈ 0.214 µM) with Staph. aureus Oxford; 0.05 µg/mL (≈ 0.107 µM) in the experiment with β-haemolytic strep. CN10; 5 µg/mL (≈ 10.7 µM) with Klebsiella aerogenes A; 0.1 µg/mL (≈ 0.214 µM) with B. subtilis. In the experiment with Staph. aureus Russell, the MIC came out at 2.5 µg/mL (≈ 5.36 µM).
With `NC(=O)c1cc(CC2=C(C(=O)O)N3C(=O)[C@@H](NC(=O)[C@H](N)c4ccccc4)[C@H]3SC2)cc(C(N)=O)c1` [Example 5, 3-(3,5-dicarbamoylbenzyl)-7β-(D-α-phenylglycyl)amino-ceph-3-em-4-carboxylic acid], the MIC came out at 10 µg/mL (≈ 19.6 µM) with Salm. typhi; 0.5 µg/mL (≈ 0.981 µM) in the experiment with Staph. aureus Oxford; 0.5 µg/mL (≈ 0.981 µM) in the experiment on β-haemolytic strep. CN10; 5 µg/mL (≈ 9.81 µM) in the experiment with Klebsiella aerogenes A; 10 µg/mL (≈ 19.6 µM) with Shig. sonnei; 2.5 µg/mL (≈ 4.91 µM) in the experiment with B. subtilis. Moreover, the MIC in the experiment with Staph. aureus Russell stood at 5 µg/mL (≈ 9.81 µM).
Turning to `CN(C(=O)C=Cc1ccccc1)C(=O)N[C@@H](C(=O)N[C@@H]1C(=O)N2C(C(=O)O)=C(Cc3ccc(C(N)=O)cc3)CS[C@H]12)c1ccccc1` [Example 7, 3-(p-Carbamoylbenzyl)-7β-[D-α-(3-cinnamoyl-3-methyluriedo)phenylacetamido]ceph-3-em-4-carboxylic acid], the MIC with E. coli JT1 was determined as 5 µg/mL (≈ 7.65 µM); in the experiment with Staph. aureus Oxford, 0.1 µg/mL (≈ 0.153 µM); in the experiment on P. mirabilis C977 it was 5 µg/mL (≈ 7.65 µM); in the experiment on P. rettgeri, 12.5 µg/mL (≈ 19.1 µM); in the experiment with β-haemolytic strep. CN10, 0.05 µg/mL (≈ 0.0765 µM); in the experiment on Klebsiella aerogenes A, 5 µg/mL (≈ 7.65 µM). In addition, the MIC came to 5 µg/mL (≈ 7.65 µM) in the experiment with P. morganii, 5 µg/mL (≈ 7.65 µM) in the experiment on B. subtilis and 12.5 µg/mL (≈ 19.1 µM) in the experiment on Staph. aureus Russell.
